Reference: US20130210846A1, “USE OF NOVEL PAN-CDK INHIBITORS FOR TREATING TUMORS” (BAYER INTELLECTUAL PROPERTY GMBH, priority 2010, published 2013)

Tests used:
Type in all cases: in vivo, female NMRI nude mice
[1] = test system: HeLa-MaTu-ADR multidrug-resistant human cervix carcinoma cells; assay: HeLa-MaTu-ADR Res. xenograft model
Description: (§1) Tumor cells grown in cell culture were implanted subcutaneously in the flank of female or male NMRI nude mice. The treatment was started as soon as the tumors had grown to a size of approx. 20 mm^2 The study was ended as soon as the tumors in one of the groups reached a size of approx. 150 mm^2.
(§2) Vehicle group: treatment with solubilizer (40% PEG400/60% water)
(§3) The studies were designed for determining the initial response of the human tumor model to the treatment with the Exemplary compound 2-SI-2. Tumor growth inhibition in percent (TGI) was either calculated at the end of the studies from the tumor weights (TGITW) using the formula 100×[1−(tumor weight of the treatment group/tumor weight of the vehicle group)], or on the day the vehicle group had to be ended from the tumor areas (TGITA) using the formula 100×[1−(tumor area of the treatment group on the day of the measurement−tumor area of the treatment group prior to treatment)/(tumor area of the vehicle group on the day of the measurement−tumor area of the vehicle group prior to treatment)]. In the case of a tumor growth inhibition of more than 50%, the treatment was considered to have been effective.
Efficacy in the HeLa-MaTu-ADR Res. xenograft model
HeLa-MaTu-ADR multidrug-resistant human cervix carcinoma cells implanted into female NMRI nude mice.
Formulation • a) 0.15 mg/ml, 0.20 mg/ml of Example 2-SI-2 in 40% (v/v) PEG 400 in water • b) 0.20 mg/ml, 0.25 mg/ml of Example 2-SI-2 in 40% (v/v) PEG 400 in water
• a) 1.5 and 2.0 mg/kg (4.5 and 6.0 mg/m^2), 1× per day • b) 2.0 and 2.5 mg/kg (6.0 and 7.5 mg/m^2), 2× per day on 2 successive days, followed by 5 treatment-free days

[2] = test system: NCI-H69 human small-cell lung tumor cells; assay: NCI-H69 human small-cell lung tumor model
Description: as §1, §2, §3
Efficacy in the NCI-H69 human small-cell lung tumor model.
NCI-H69 human small-cell lung tumor cells implanted into female NMRI nude mice. […]

[3] = test system: NCI-H526 human small-cell lung tumor cells; assay: NCI-H526 human small-cell lung tumor model
Description: as §1, §2, §3
Efficacy in the NCI-H526 human small-cell lung tumor model.
NCI-H526 human small-cell lung tumor cells implanted into female NMRI nude mice.
• a) 0.20 mg/ml of Example 2-SI-2 in 40% (v/v) PEG 400 in water • b) 0.20 mg/ml of Example 2-SI-2 in 40% (v/v) PEG 400 in water • c) 0.15 mg/ml of Example 2-SI-2 in 40% (v/v) PEG 400 in water • d) 0.17 mg/ml of Example 2-SI-2 in 40% (v/v) PEG 400 in water
(§4) • a) 2.0 mg/kg (6.0 mg/m^2), 1× per day. • b) 2.0 mg/kg (6.0 mg/m^2), 2× per day on 2 successive days, followed by 5 treatment-free days. • c) 1.5 mg/kg (4.5 mg/m^2), 2× per day on 3 successive days, followed by 4 treatment-free days. • d) 1.7 mg/kg (5.1 mg/m^2), 2× per day on 3 successive days, followed by 4 treatment-free days.

[4] = test system: MDA-MB231 human breast tumor cells; assay: MDA-MB231 human breast tumor model
Description: as §1, §2, §3
Efficacy in the MDA-MB231 human breast tumor model MDA-MB231.
MDA-MB231 human breast tumor cells implanted into female NMRI nude mice.
• a) 0.20 mg/ml of Example 2-SI-2 in 40% (v/v) PEG 400 in water • b) 0.25 mg/ml of Example 2-SI-2 in 40% (v/v) PEG 400 in water • c) 0.15 mg/ml of Example 2-SI-2 in 40% (v/v) PEG 400 in water • d) 0.17 mg/ml of Example 2-SI-2 in 40% (v/v) PEG 400 in water
as §4, with “• b) 2.5 mg/kg (7.5” for “• b) 2.0 mg/kg (6.0”, “2.5 mg/kg (7.5 mg/m^2), 2×” for “2.0 mg/kg (6.0 mg/m^2), 2×”

[5] = HeLa-MaTu-ADR; b) 2.5 mg/kg oral 2× per day on 2 successive days, followed by 5 treatment-free days

Which “TGITW (tumor growth inhibition from tumor weights)” value ([1]; HeLa-MaTu-ADR; a) 2.0 mg/kg oral 1× per day) does the source give for C[C@@H](O)[C@@H](C)Oc1nc(Nc2ccc(S(C)(=N)=O)cc2)ncc1C(F)(F)F (mixture of isomers) [Example 2-SI-2, (RS)—S-(4-{[4-{[(1R,2R)-2-Hydroxy-1-methylpropyl]oxy}-5-(trifluoromethyl)pyrimidin-2-yl]-amino}phenyl)-S-methylsulfoximide] here?
Its value is 97%.

And the “TGITW (tumor growth inhibition from tumor weights)” value [1, 5]?
The value was 90%.

What about the tumor regression observation [1, 5] of the same molecule?
Its tumor regression observation is “signs of tumor regression”.

What about the “TGITA (tumor growth inhibition from tumor areas, measured on the day the vehicle group was ended)” value ([2]; NCI-H69; a) 2.0 mg/kg oral 1× per day) of the same molecule?
The value was 99%.

And the “TGITA (tumor growth inhibition from tumor areas)” value ([2]; NCI-H69; b) 2.5 mg/kg oral 2× per day on 2 successive days, followed by 5 treatment-free days)?
The value was 110%.

What about the “TGITW (tumor growth inhibition from tumor weights)” value ([3]; NCI-H526; a) 2.0 mg/kg oral 1× per day) of the same molecule?
The value was 98%.

And the “TGITW (tumor growth inhibition from tumor weights)” value ([3]; NCI-H526; b) 2.0 mg/kg oral 2× per day on 2 successive days, followed by 5 treatment-free days)?
The value was 72%.

And the “TGITW (tumor growth inhibition from tumor weights)” value ([3]; NCI-H526; c) 1.5 mg/kg oral 2× per day on 3 successive days, followed by 4 treatment-free days)?
Its value is 79%.

What about the “TGITW (tumor growth inhibition from tumor weights)” value ([3]; NCI-H526; d) 1.7 mg/kg oral 2× per day on 3 successive days, followed by 4 treatment-free days) of the same molecule?
Its value is 88%.

And the “TGITA (tumor growth inhibition from tumor areas, measured on the day the vehicle group was ended)” value ([4]; MDA-MB231; a) 2.0 mg/kg oral 1× per day)?
The value was 92%.

And the “TGITA (tumor growth inhibition from tumor areas)” value ([4]; MDA-MB231; b) 2.5 mg/kg oral 2× per day on 2 successive days, followed by 5 treatment-free days)?
Its value is 76%.

What about the “TGITA (tumor growth inhibition from tumor areas)” value ([4]; MDA-MB231; c) 1.5 mg/kg oral 2× per day on 3 successive days, followed by 4 treatment-free days) of the same molecule?
The value was 70%.

What about the “TGITA (tumor growth inhibition from tumor areas)” value ([4]; MDA-MB231; d) 1.7 mg/kg oral 2× per day on 3 successive days, followed by 4 treatment-free days) of the same molecule?
Its value is 70%.
